Results published in US4906638A (priority 1987, dated 1990).
Entries after “also recorded” stand apart in the source; their conditions may differ. Where two headings read alike, the source gives them in different places.

Key:
[1] = system: maximal electroshock induced seizures; assay: maximal electroshock (MES) induced seizures in mice (Example II); format: in vivo, mice (male CF-1); details: for % Protected: 30 min before testing
Procedure: All drugs were dissolved in saline (0.9%; w/v) and delivered intraperitoneally in a volume equal to 1 percent of body weight. Animals failing to show tonic hindlimb extension were scored as protected from MES-induced convulsions.

[2] = system: N-methyl-D-aspartate-induced seizures; assay: N-methyl-D-aspartate (NMDA) induced convulsions in mice; format: in vivo, mice (male CF-1); details: for % Protected: 30 min before NMDA 250 mg/kg; for protection against N-methyl-D-asparate-induced seizures (in words): i.p.
Procedure: When mice (male CF-1; 25-30 g) are administered NMDA (250 mg/kg; IP) animals typically respond with seizure activity consisting of an initial staring, followed in rapid order by hindlimb scratching, increased locomotor activity, rearing behavior, clonic seizures, tonic extension and death.
All drugs were dissolved in saline (0.9%; w/v) and delivered by intraperitoneal injection in a volume of 1.0% (w/v) of body weight.

[3] = observed signs of toxicity in mice after ethosuximide; format: in vivo; details: 500 mg/kg i.p.
[4] = system: maximal electroshock seizures (tonic hindlimb extension); assay: maximal electroshock (MES) procedure for mice, transauricular (Example I); format: in vivo; details: for mice protected: 500 mg/kg i.p.
Procedure: For combination studies two separate injections were administered. […] The absence of tonic hindlimb extension was taken as evidence for seizure protection.

[5] = system: [^3 H]dextromethorphan receptor; details: cited from earlier work; for effect on [^3 H]dextromethorphan binding / binding to the dextromethorphan site (in words): central nervous system site; for IC50: read-out: IC50, inhibition of [^3 H]dextromethorphan binding, in vitro
[6] = rotorod-ataxia toxicity test (CNS side effects); details: mouse, in vivo
Excerpt: (§1) Mice that were unable to maintain equilibrium for one continuous minute, given 3 opportunities were scored as ataxic.

[7] = system: [^3 H]TCP-labeled-NMDA-linked receptor; details: cited from earlier work
[8] = system: calcium-induced spasms in smooth muscle; details: cited from earlier work
[9] = system: CNS side effects (rotorod ataxia); assay: rotorod-ataxia toxicity test (CNS side effects); details: maximal therapeutic dose of dextromethorphan
Excerpt: as §1

[10] = system: transauricular maximal electroshock seizure (MES); details: cited from earlier work
[11] = following 20 to 60 mg dextromethorphan p.o. in humans; cited from earlier work
[12] = rats, dogs and humans; cited from earlier work

O=C(O)C1CN(CCCP(=O)(O)O)CCN1 (centres unmarked) [CPP, 3-(2-carboxypiperazin-4-yl)propyl-1-phosphono acid]
% Protected ([1]; CPP 5 mg/kg i.p. alone): 25% | % Protected ([1]; CPP 10 mg/kg i.p. alone): 60% | % Protected ([2]; CPP 1.5 mg/kg i.p. alone): 12.5% | % Protected ([2]; CPP 2.0 mg/kg i.p. alone): 37.5% | protection against N-methyl-D-asparate-induced seizures (in words) [2]: afforded protection

CCC1(C)CC(=O)NC1=O (centres unmarked) [Ethosuximide]
signs of sedation, ataxia and gross toxicity [3]: all mice injected showed signs of sedation, ataxia and gross toxicity | mice protected ([4]; at one half hour): one in five | mice protected ([4]; one hour after injection): none

CN1[C@@H]2CC[C@H]1C[C@@H](OC(c1ccccc1)c1ccccc1)C2 [benztropine]
effect on [^3 H]dextromethorphan binding / binding to the dextromethorphan site (in words) [5]: bind to the same central nervous system site

CCN(CC)CCOC(=O)C1(c2ccccc2)CCCC1 [caramiphen]
effect on [^3 H]dextromethorphan binding / binding to the dextromethorphan site (in words) [5]: bind to the same central nervous system site | IC50 [5]: 1 to 75 nM

NC(=O)N1c2ccccc2C=Cc2ccccc21 [carbamazepine, 5-H-dibenzepin-(5)-carboxamide]
% Mice Protected ([4]; CBM 1 mg/kg alone, 15 min before MES): 0% | % Mice Protected ([4]; CBM 3 mg/kg alone, 15 min before MES): 0% | % Mice Protected ([4]; CBM 6 mg/kg alone, 15 min before MES): 25% | % Mice Protected ([4]; CBM 8 mg/kg alone, 15 min before MES): 50% | % Mice Protected ([4]; CBM 9 mg/kg alone, 15 min before MES): 75% | % Mice Protected ([4]; CBM 12 mg/kg alone, 15 min before MES): 100% | ED50 ([4]; CBM alone, 15 min): 7.2 mg/kg | TD50 at […] [6]: 44.8 mg/kg | effect on [^3 H]dextromethorphan binding / binding to the dextromethorphan site (in words) [5]: did not inhibit or enhance; also recorded: do not inhibit or enhance binding

CCN(CC)CCOCCOC(=O)C1(c2ccccc2)CCCC1 [carbetapentane]
effect on [^3 H]dextromethorphan binding / binding to the dextromethorphan site (in words) [5]: bind to the same central nervous system site | IC50 [5]: 1 to 75 nM

CN(C)CCCN1c2ccccc2Sc2ccc(Cl)cc21 [chlorpromazine]
effect on [^3 H]dextromethorphan binding / binding to the dextromethorphan site (in words) [5]: bind to the same central nervous system site

C(=C\c1ccccc1)/CN1CCN(C(c2ccccc2)c2ccccc2)CC1 [cinnarizine]
effect on [^3 H]dextromethorphan binding / binding to the dextromethorphan site (in words) [5]: bind to the same central nervous system site

c1ccc(C2(c3ccccc3)OC[C@H]([C@@H]3CCCCN3)O2)cc1 [dexoxadrol]
effect on [^3 H]dextromethorphan binding / binding to the dextromethorphan site (in words) [5]: do not inhibit or enhance binding

COc1ccc2c(c1)[C@]13CCCC[C@@H]1[C@H](C2)N(C)CC3 [dextromethorphan]
binding at phencyclidine-labeled/N-methyl-D-asparate linked receptors (in words) [7]: bind at phencyclidine-labeled/N-methyl-D-asparate linked receptors | block of calcium-induced spasms in smooth muscle (in words) [8]: block calcium-induced spasms in smooth muscle | % Mice Protected ([4]; 0 mg/kg CBM + 10 mg/kg DM (DM alone)): 0% | % Mice Protected ([4]; 0 mg/kg CBM + 20 mg/kg DM (DM alone)): 8% | protection when administered alone (in words) ([4]; 10 and 20 mg/kg, with 0 CBM): little or no protection | % Protected ([4]; DM 5 mg/kg i.p., one-half hour before MES): 0% | % Protected ([4]; DM 10 mg/kg i.p., one-half hour before MES): 0% | % Protected ([4]; DM 20 mg/kg i.p., one-half hour before MES): 8% | % Protected ([4]; DM 25 mg/kg i.p., one-half hour before MES): 25% | % Protected ([4]; DM 30 mg/kg i.p., one-half hour before MES): 37.5% | % Protected ([4]; DM 35 mg/kg i.p., one-half hour before MES): 75% | % Protected ([4]; DM 45 mg/kg i.p., one-half hour before MES): 87.5% | % Protected ([4]; DM 55 mg/kg i.p., one-half hour before MES): 100% | ED50 ([4]; Mus musculus, ip, 0.5 h, DM alone, i.p., one-half hour before MES, range in parentheses, read-out: ED50): 29.2 mg/kg | anticonvulsant activity (in words) ([4]; alone, i.p., one-half hour before MES): dose dependent anticonvulsant activity | increment in carbamazepine's CNS side effects (in words) [9]: little increment in carbamazepine's CNS side effects | % Protected ([1]; DM 6.6 mg/kg i.p. alone): 0% | % Protected ([1]; DM 10 mg/kg i.p. alone): 16.6% | % Protected ([1]; DM 27 mg/kg i.p. alone): 50% | % Protected ([1]; DM 30 mg/kg i.p. alone): 66.6% | effect of dextromethorphan on anticonvulsant activity of CPP (in words) ([1]; low vs higher doses of dextromethorphan combined with CPP): readily apparent only when low doses of dextromethorphan were administered in combination with anticonvulsant doses of CPP; also recorded: higher doses of dextromethorphan were either ineffective to increase the anticonvulsant activity of CPP or, partially attenuated the activity | protection against transauricular maximal electroshock seizure (in words) ([10]; 30 mg/kg, by itself): provide protection against transauricular maximal electroshock seizure (MES) | protection time against MES compared with dilantin (in words) ([10]; standard testing conditions): somewhat longer protection time against MES than that exhibited by dilantin | absolute plasma levels [11]: five | % Protected ([2]; DM 10 mg/kg i.p. alone): 33% | protection against N-methyl-D-asparate-induced seizures (in words) [2]: afforded protection | Kd ([5]; read-out: Kd, high affinity binding of [^3 H]dextromethorphan, homogenates of guinea pig, rat and mouse lower brainstem): < 20 nM

CN1CC[C@@]23CCCC[C@@H]2[C@@H]1Cc1ccc(O)cc13 [dextrorphan]
ratio of dextrorphan to dextromethorphan in plasma and urine [12]: exceeds 100 to 1

CN1C(=O)CN=C(c2ccccc2)c2cc(Cl)ccc21 [diazepam]
effect on [^3 H]dextromethorphan binding / binding to the dextromethorphan site (in words) [5]: do not inhibit or enhance binding

CN(C)CCOCCOC(=O)N1c2ccccc2Sc2ccccc21 [dimethoxanate]
effect on [^3 H]dextromethorphan binding / binding to the dextromethorphan site (in words) [5]: bind to the same central nervous system site | IC50 [5]: 1 to 75 nM

OCCN1CCN(CC/C=C2/c3ccccc3Sc3ccc(C(F)(F)F)cc32)CC1 [flupenthinol]
effect on [^3 H]dextromethorphan binding / binding to the dextromethorphan site (in words) [5]: bind to the same central nervous system site

OCCN1CCN(CCCN2c3ccccc3Sc3ccc(C(F)(F)F)cc32)CC1 [fluphenazine]
effect on [^3 H]dextromethorphan binding / binding to the dextromethorphan site (in words) [5]: bind to the same central nervous system site

CNC1(c2ccccc2Cl)CCCCC1=O (centres unmarked) [ketamine]
effect on [^3 H]dextromethorphan binding / binding to the dextromethorphan site (in words) [5]: do not inhibit or enhance binding

COc1ccc2c(c1OC)C(=O)O[C@@H]2[C@H]1c2c(cc3c(c2OC)OCO3)CCN1C [noscapine]
effect on [^3 H]dextromethorphan binding / binding to the dextromethorphan site (in words) [5]: markedly increased | effect on [^3 H]dextromethorphan binding / binding to the dextromethorphan site (in words) ([5]; listed as roscapine): bind to the same central nervous system site

OCCN1CCN(CCCN2c3ccccc3C=Cc3ccccc32)CC1 [opipramol]
effect on [^3 H]dextromethorphan binding / binding to the dextromethorphan site (in words) [5]: bind to the same central nervous system site

OCCN1CCN(CCCN2c3ccccc3Sc3ccc(Cl)cc32)CC1 [perphenazine]
effect on [^3 H]dextromethorphan binding / binding to the dextromethorphan site (in words) [5]: bind to the same central nervous system site

c1ccc(C2(N3CCCCC3)CCCCC2)cc1 [phencyclidine]
effect on [^3 H]dextromethorphan binding / binding to the dextromethorphan site (in words) [5]: do not inhibit or enhance binding

CCC1(c2ccccc2)C(=O)NC(=O)NC1=O [phenobarbital]
effect on [^3 H]dextromethorphan binding / binding to the dextromethorphan site (in words) [5]: do not inhibit or enhance binding

Nc1ccccc1 [phenylamine]
effect on [^3 H]dextromethorphan binding / binding to the dextromethorphan site (in words) [5]: bind to the same central nervous system site

O=C(OCCOCCN1CCCCC1)N1c2ccccc2Sc2cccnc21 [pipazethate]
effect on [^3 H]dextromethorphan binding / binding to the dextromethorphan site (in words) [5]: bind to the same central nervous system site

CN1CCN(CCCN2c3ccccc3Sc3ccc(Cl)cc32)CC1 [prochlorperazine]
effect on [^3 H]dextromethorphan binding / binding to the dextromethorphan site (in words) [5]: bind to the same central nervous system site

CC(CN1c2ccccc2Sc2ccccc21)N(C)C (centres unmarked) [promethazine]
effect on [^3 H]dextromethorphan binding / binding to the dextromethorphan site (in words) [5]: bind to the same central nervous system site

CN1CCN(CCCN2c3ccccc3Sc3ccc(C(F)(F)F)cc32)CC1 [trifluorperazine]
effect on [^3 H]dextromethorphan binding / binding to the dextromethorphan site (in words) [5]: bind to the same central nervous system site

CC(CN(C)C)CN1c2ccccc2Sc2ccccc21 (centres unmarked) [trimeprazine]
effect on [^3 H]dextromethorphan binding / binding to the dextromethorphan site (in words) [5]: bind to the same central nervous system site
